Data as given in US11648239B2, “Azophenols as ERG oncogene inhibitors” (The Henry M. Jackson Foundation for the Advancement of …, priority 2015, dated 2023).

Key:
Format in all cases: cell-based
ERG protein = biological target: T1, ERG protein (Homo sapiens, UniProt P11308); assay: Inhibition of endogenous ERG protein in COLO320 cells (Western blot); parameters: host or cells: COLO320; settings: 0.25 μM and 1 μM, FIG. 8
T1 sequence (P11308 1-479): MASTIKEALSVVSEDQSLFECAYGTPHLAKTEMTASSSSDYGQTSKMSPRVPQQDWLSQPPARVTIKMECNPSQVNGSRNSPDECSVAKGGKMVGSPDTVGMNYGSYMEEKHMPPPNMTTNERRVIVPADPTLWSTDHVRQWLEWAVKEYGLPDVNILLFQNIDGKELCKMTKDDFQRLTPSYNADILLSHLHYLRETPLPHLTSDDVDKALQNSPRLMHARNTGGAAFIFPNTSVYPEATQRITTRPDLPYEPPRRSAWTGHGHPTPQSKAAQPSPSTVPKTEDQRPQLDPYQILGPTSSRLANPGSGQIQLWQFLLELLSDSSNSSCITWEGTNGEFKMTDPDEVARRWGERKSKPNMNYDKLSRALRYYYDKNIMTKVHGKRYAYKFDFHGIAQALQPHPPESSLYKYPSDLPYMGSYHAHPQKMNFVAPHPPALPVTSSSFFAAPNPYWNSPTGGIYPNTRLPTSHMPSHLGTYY
Experimental: Inhibition of ERG protein expression by the test compounds were determined by Western blot analysis. The ERG specific monoclonal antibody CPDR ERG-MAb was used as the primary antibody. In brief, Western blot was performed by running a fixed amount of total protein extracted from cell lysates of the treated cells using (4-12% Bis-Tris) gel by electrophoresis, followed by transfer to membrane and incubation with primary antibody and continued with HRP-conjugated secondary antibody. Cultured cells were treated at specific dosages with each of the tested ERG inhibitors. Following incubation of the treated cells for an indicated time period, cells were lysed using Mammalian Protein Extraction Reagent (M-PER; Pierce, Rockford, Ill.) containing a protease inhibitor cocktail and phosphatase inhibitor cocktails I & III (Sigma, St Louis, Mo.). Cell lysates containing 50 μg of total protein were electrophoresed through 4-12% Bis-Tris Gel (Invitrogen, Carlsbad, Calif.) and the cellular proteins were transferred to PVDF membrane (Invitrogen, Carlsbad, Calif.). Membranes were incubated at 4° C. for 12 hours with primary antibodies for AR, PSA, GAPDH, α-Tubulin, apoptosis markers and cell cycle regulators. […]

LAPC-4 cells = assay: LAPC-4 cell growth; settings: 0.25 μM and 1 μM, FIG. 7
Experimental: (§1) Approximately 48 hours following plating of cells, the appropriate test compound is added to each well of the tissue culture dish at a predetermined concentration. The medium was replenished every 24 hours with fresh growth medium containing the same concentration of the same test compound for indicated period of the cell growth inhibition assay. Percent cell growth inhibition was calculated using a hemocytometer for estimating cell density in each of the test wells of the tissue culture dish and trypan blue dye exclusion microscopy and photography to estimate the fraction of viable cells in each test well.

VCaP cells = assay: VCaP cell growth inhibition; settings: for inhibition of VCaP cell growth: 0.1, 0.2, 0.4, 0.6, 0.8 and 1 μM, FIG. 15, 18; for inhibition of the growth of ERG harboring prostate cancer cells: VCaP, 0.25 μM and 1 μM, FIG. 3
Experimental: as §1
To investigate whether the azophenol compounds selectively arrested the growth of ERG positive cancer cells (VCaP), VCaP cells were cultured to achieve cells in logarithmic growth and these cells were then plated in 6 well tissue culture dishes in duplicates at a cell density of 0.2×10^6 cells per well. The plated cells were exposed to 0, 0.2, 0.4, 0.6, 0.8 and 1 μM concentrations of each compound for a period of 8 days. At the end of time period, cells were recovered from the test plate, washed, trypsinized and the cell density of viable cells were determined with trypan blue dye staining method and automated cell counter Bio-Rad TC10. The IC50 of cell growth inhibition of each compound was determined by trypsinizing the cells at the end of the experiment and counting the cells by using the automated cell counter (Bio-Rad TC10 automated cell counter). The average cell numbers of each concentration were used to calculate the IC50 of each compound with the GraphPad Prism 6 software.

RWPE-1 cells = assay: RWPE-1 cell growth; settings: 0.25 μM and 1 μM, FIG. 12
Experimental: as §1

RIOK2 protein = RIOK2 protein (Homo sapiens, UniProt Q9BVS4); assay: Inhibition of RIOK2 protein in HUVEC normal endothelial cells (Western blot); parameters: ERG and RIOK2 proteins in endogenous ERG expressing normal endothelial cells (HUVEC); host or cells: HUVEC; settings: 0.25 μM and 1 μM, FIG. 10
Sequence of RIOK2 protein (Q9BVS4 whole entry): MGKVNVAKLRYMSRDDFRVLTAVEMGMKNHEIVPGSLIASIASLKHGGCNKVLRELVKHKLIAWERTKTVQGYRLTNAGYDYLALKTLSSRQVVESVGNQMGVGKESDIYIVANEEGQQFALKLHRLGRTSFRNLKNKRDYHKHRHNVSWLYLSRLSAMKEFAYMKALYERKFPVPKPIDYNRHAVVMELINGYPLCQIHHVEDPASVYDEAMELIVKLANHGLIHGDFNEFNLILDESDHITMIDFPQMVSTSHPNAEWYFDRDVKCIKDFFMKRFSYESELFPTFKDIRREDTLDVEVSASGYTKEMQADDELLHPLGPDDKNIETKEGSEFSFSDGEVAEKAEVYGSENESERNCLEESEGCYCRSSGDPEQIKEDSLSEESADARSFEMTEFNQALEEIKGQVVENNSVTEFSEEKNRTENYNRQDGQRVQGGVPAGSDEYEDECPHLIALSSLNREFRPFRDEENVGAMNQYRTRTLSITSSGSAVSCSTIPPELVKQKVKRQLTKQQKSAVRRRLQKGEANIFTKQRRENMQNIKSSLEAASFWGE

SMILES: CC(C)c1ccc(O)c(N=Nc2nccs2)c1 [Compound 1]
- inhibition of endogenous ERG protein (ERG protein): inhibition
- growth of ERG negative prostate cancer cells (LAPC-4 cells): do not affect the growth
- inhibition of VCaP cell growth (VCaP cells): inhibition
- inhibition of the growth of ERG harboring prostate cancer cells (VCaP cells): inhibition
- growth of ERG negative prostate-derived immortalized cells (RWPE-1 cells): do not affect the growth
- inhibition of RIOK2 protein (RIOK2 protein): lack of inhibition

SMILES: Cc1ccc(O)c(N=Nc2nccs2)c1 [Compound 2]
- inhibition of endogenous ERG protein (ERG protein): inhibition
- growth of ERG negative prostate cancer cells (LAPC-4 cells): do not affect the growth
- inhibition of VCaP cell growth (VCaP cells): inhibition
- inhibition of the growth of ERG harboring prostate cancer cells (VCaP cells): inhibition
- growth of ERG negative prostate-derived immortalized cells (RWPE-1 cells): do not affect the growth
- inhibition of RIOK2 protein (RIOK2 protein): lack of inhibition
